{"source": "patent US10828316B2", "about": "“Method of treating bacterial infections” (priority 2016, dated 2020)", "key": {"P. aeruginosa EN0004": {"test_system": "P. aeruginosa EN0004", "test": "MIC", "type": "cell-based"}, "A. baumannii EN0007": {"test_system": "A. baumannii EN0007", "test": "MIC", "type": "cell-based, A. baumanii"}, "K. pneumoniae EN0143": {"test_system": "K. pneumoniae EN0143", "test": "MIC", "type": "cell-based"}, "E. coli EN0135": {"test_system": "E. coli EN0135", "test": "MIC", "type": "cell-based", "conditions": "in AZT+trimethoprim+uridine combination"}, "S. flexneri APV00907": {"test_system": "S. flexneri APV00907", "test": "MIC", "type": "cell-based", "conditions": "S. flexneri APV00907"}, "E. coli EN013": {"test_system": "E. coli EN013", "test": "MIC", "type": "cell-based, Escherichia coli", "conditions": "Escherichia coli, EN013, E. coli EN013"}, "[1]": {"test_system": "Helicobacter pylori APV00918", "test": "MIC", "type": "cell-based", "conditions": "in FdUrd+trimethoprim+uridine combination", "text": "(§1) Inhibition of Heliobacter is important in view of increasing resistance and its association to gastric cancer."}, "[2]": {"test_system": "Helicobacter pylori ATTC43504", "test": "MIC", "type": "cell-based", "conditions": "in AZT+trimethoprim+uridine combination", "text": "as §1"}, "K. pneumoniae EN0142": {"test_system": "K. pneumoniae EN0142", "test": "MIC", "type": "cell-based", "conditions": "in AZT+trimethoprim+uridine combination"}, "[3]": {"conditions": "in vivo; cited from earlier work"}, "E. coli EN002": {"test_system": "E. coli EN002", "test": "MIC", "type": "cell-based, Escherichia coli", "conditions": "Combination 1 (AZT+trimethoprim+uridine)"}, "K. pneumoniae EN0401": {"test_system": "K. pneumoniae EN0401", "test": "MIC", "type": "cell-based"}, "K. pneumoniae EN0436": {"test_system": "K. pneumoniae EN0436", "test": "MIC", "type": "cell-based", "conditions": "in AZT+trimethoprim+uridine combination"}, "K. oxytoca EN0392": {"test_system": "K. oxytoca EN0392", "test": "MIC", "type": "cell-based, Klebsiella oxytoca", "conditions": "in FdUrd+trimethoprim+uridine combination"}, "K. pneumoniae EN011": {"test_system": "K. pneumoniae EN011", "test": "MIC", "type": "cell-based, Klebsiella pneumoniae", "conditions": "Klebsiella pneumoniae, EN011, K. pneumoniae EN011"}, "E. coli EN0001": {"test_system": "E. coli EN0001", "test": "MIC", "type": "cell-based", "conditions": "in AZT+trimethoprim+uridine combination"}, "K. pneumoniae EN0437": {"test_system": "K. pneumoniae EN0437", "test": "MIC", "type": "cell-based"}, "E. coli EN0136": {"test_system": "E. coli EN0136", "test": "MIC", "type": "cell-based", "conditions": "in AZT+trimethoprim+uridine combination"}, "E. coli EN001": {"test_system": "E. coli EN001", "test": "MIC", "type": "cell-based, Escherichia coli"}, "E. coli EN0138": {"test_system": "E. coli EN0138", "test": "MIC", "type": "cell-based", "conditions": "in AZT+trimethoprim+uridine combination"}, "P. aeruginosa EN015": {"test_system": "P. aeruginosa EN015", "test": "MIC", "type": "cell-based, Pseudomonas aeruginosa", "conditions": "Pseudomonas aeruginosa, EN015, P. aeruginosa EN015"}, "S. sonnei APV00908": {"test_system": "S. sonnei APV00908", "test": "MIC", "type": "cell-based", "conditions": "S. sonnei APV00908"}, "S. flexneri APV00906": {"test_system": "S. flexneri APV00906", "test": "MIC", "type": "cell-based", "conditions": "S. flexneri APV00906; in FdUrd+trimethoprim+uridine combination"}, "S. typhimurium EN0466": {"test_system": "S. typhimurium EN0466", "test": "MIC", "type": "cell-based, Salmonella typhimurium", "conditions": "in FdUrd+trimethoprim+uridine combination"}, "[4]": {"conditions": "in AZT+trimethoprim+uridine combination"}, "[5]": {"conditions": "in FdUrd+trimethoprim+uridine combination"}, "[6]": {"conditions": "in didanosine+trimethoprim+uridine combination"}, "[7]": {"conditions": "Combination 1 (AZT+trimethoprim+uridine)"}, "[8]": {"conditions": "Combination 2 (same mixed with thymidine)"}}}
{"smiles": "O=c1ccn([C@@H]2O[C@H](CO)[C@@H](O)[C@H]2O)c(=O)[nH]1", "note": "[Uridine, uridine]", "values": [{"measurement": "MIC", "setting": "P. aeruginosa EN0004; [4]", "value": ">400", "unit": "mg/L"}, {"measurement": "MIC", "setting": "P. aeruginosa EN0004; [5]", "value": ">400", "unit": "mg/L"}, {"measurement": "MIC", "setting": "P. aeruginosa EN0004; [6]", "value": ">400", "unit": "mg/L"}, {"measurement": "MIC", "setting": "A. baumannii EN0007; [4]", "value": ">400", "unit": "mg/L"}, {"measurement": "MIC", "setting": "A. baumannii EN0007; [5]", "value": ">400", "unit": "mg/L"}, {"measurement": "MIC", "setting": "A. baumannii EN0007; [6]", "value": ">400", "unit": "mg/L"}, {"measurement": "MIC", "setting": "K. pneumoniae EN0143; [5]", "value": ">400", "unit": "mg/L"}, {"measurement": "MIC", "setting": "K. pneumoniae EN0143; [6]", "value": ">400", "unit": "mg/L"}, {"measurement": "MIC", "setting": "E. coli EN0135", "value": 13, "unit": "mg/L"}, {"measurement": "MIC", "setting": "S. flexneri APV00907; [4]", "value": 200, "unit": "mg/L"}, {"measurement": "MIC", "setting": "S. flexneri APV00907; [5]", "value": ">400", "unit": "mg/L"}, {"measurement": "MIC", "setting": "E. coli EN013; [7]", "value": "< 0.8", "unit": "mg/L"}, {"measurement": "MIC", "setting": "E. coli EN013; [8]", "value": "< 0.8", "unit": "mg/L"}, {"measurement": "MIC", "setting": "E. coli EN013; [4]", "value": "< 2", "unit": "mg/L"}, {"measurement": "MIC", "setting": "E. coli EN013; [5]", "value": 1.6, "unit": "mg/L"}, {"measurement": "MIC", "setting": "E. coli EN013; [6]", "value": 1.6, "unit": "mg/L"}, {"measurement": "MIC", "setting": "[1]", "value": 6, "unit": "mg/L"}, {"measurement": "MIC", "setting": "[2]", "value": 13, "unit": "mg/L"}, {"measurement": "MIC", "setting": "K. pneumoniae EN0142", "value": 13, "unit": "mg/L"}, {"measurement": "oral bioavailability", "setting": "[3]", "value": "7-8%"}, {"measurement": "MIC", "setting": "E. coli EN002", "value": 1.6, "unit": "mg/L"}, {"measurement": "MIC", "setting": "K. pneumoniae EN0401; [5]", "value": ">400", "unit": "mg/L"}, {"measurement": "MIC", "setting": "K. pneumoniae EN0401; [6]", "value": ">400", "unit": "mg/L"}, {"measurement": "MIC", "setting": "K. pneumoniae EN0436", "value": 13, "unit": "mg/L"}, {"measurement": "MIC", "setting": "K. oxytoca EN0392", "value": 13, "unit": "mg/L"}, {"measurement": "MIC", "setting": "K. pneumoniae EN011; [7]", "value": 3.2, "unit": "mg/L"}, {"measurement": "MIC", "setting": "K. pneumoniae EN011; [4]", "value": 30, "unit": "mg/L"}, {"measurement": "MIC", "setting": "K. pneumoniae EN011; [5]", "value": 6, "unit": "mg/L"}, {"measurement": "MIC", "setting": "K. pneumoniae EN011; [6]", "value": 13, "unit": "mg/L"}, {"measurement": "MIC", "setting": "E. coli EN0001", "value": 13, "unit": "mg/L"}, {"measurement": "MIC", "setting": "K. pneumoniae EN0437; [5]", "value": ">400", "unit": "mg/L"}, {"measurement": "MIC", "setting": "K. pneumoniae EN0437; [6]", "value": ">400", "unit": "mg/L"}, {"measurement": "MIC", "setting": "E. coli EN0136", "value": 13, "unit": "mg/L"}, {"measurement": "MIC", "setting": "E. coli EN001; [5]", "value": 13, "unit": "mg/L"}, {"measurement": "MIC", "setting": "E. coli EN001; [6]", "value": 13, "unit": "mg/L"}, {"measurement": "MIC", "setting": "E. coli EN0138", "value": 1.6, "unit": "mg/L"}, {"measurement": "MIC", "setting": "P. aeruginosa EN015; [7]", "value": 200, "unit": "mg/L"}, {"measurement": "MIC", "setting": "P. aeruginosa EN015; [8]", "value": 200, "unit": "mg/L"}, {"measurement": "MIC", "setting": "P. aeruginosa EN015; [4]", "value": 500, "unit": "mg/L"}, {"measurement": "MIC", "setting": "S. sonnei APV00908; [4]", "value": 3, "unit": "mg/L"}, {"measurement": "MIC", "setting": "S. sonnei APV00908; [5]", "value": ">400", "unit": "mg/L"}, {"measurement": "MIC", "setting": "S. flexneri APV00906", "value": ">400", "unit": "mg/L"}, {"measurement": "MIC", "setting": "S. typhimurium EN0466", "value": 13, "unit": "mg/L"}]}
